Data from US5457092A, “Methods of promoting bone growth in mammals comprising administration of modified parathyroid hormone” (Gesellschaft fur Biotechnologische Forschung mbH (GBF), priority 1987, dated 1995).

Experiments:
[1] = test system: chondrocytes from sterna of 16-day-old embryonic chicks; test: Stimulation of DNA synthesis in chondrocytes by PTH fragments (Table 1); assay type: cell-based, chick; conditions: for [^3 H]thymidine incorporation: 4 h; for E/C: stimulated / non-induced control cells
Method: Chondrocytes were isolated from sterna of 16-day-old embryonic chicks according to J. Biol. Chem., 261 (1986) 7997-8001 (10; Yasui et al.) with some modifications. Collagenase was dissolved in Hanks' balanced salt solution (0.4 mM Na2 HPO4, 140 mN NaCl, 5.3 mM KCl, 0.4 mM MgSO4, 1.3 mM CaCl2, 0.4 mM KH2 PO4, 0.5 mM MglC2, 5 mM glucose, 0.05% gentamicin) at a concentration of 286 units/ml. Sterna were treated repeatedly for 30 min with collagenase solution at 37° C. Cells first released by this procedure were discarded because of their very poor responsiveness towards PTH. The collagenase treatment was subsequently repeated leading to a highly homogenous cell population of chondrocytes. The cells obtained by a second collagenase treatment were collected by centrifugation (1000 rpm, 10 min), washed twice with medium (Dulbecco's modified Eagle's medium, GIBCO, supplemented with NaHCO3 (45 mM), glutamine (2 mM), penicillin G/streptomycin (65 mg/1 and 100 mg/l, respectively), Hepes (10 mM, pH 7.2), and FCS (10% v/v) and counted.
The DNA synthesis rate was assayed in monolayer culture by the incorporation of ]^3 H]thymidine into perchloric acid-precipitable material. […] After 17 h, the medium was replaced by 200 μl of serum-free medium. After 4 days, chondrocytes were incubated for 4 h with the appropriate effector and 1μ Ci of [^3 H]thymidine. Subsequently, medium was removed and the cells were washed twice with 200 μl of phosphate-buffered saline (PBS: 137 mM NaCl, 2.7 mN KCl, 1.5 mM KH2 PO4, 0.8 mN Na2 HPO4, pH 7.0). Then cells were lysed by 100 μl of 2% (v/v) Nonidet P- 40 and 2% (w/v) sodium dodecyl sulfate treatment and the perchloric acid-insoluble material was precipitated by adding an equal volume of ice-cold 2% (w/v) perchloric acid in the presence of 1% herring sperm DNA as carrier. After storage for 10 min at -20° C., the precipitated material of each well was transferred to glass fiber filters with a Scatron--As semiautomatic cell harvester. Filters were dried at 80° C. for 20 min, transferred into scintillation vials, and 2 ml of scintillation mixture (scintillator 299; United Technology Pachard) were added. Radioactivity of the samples was determined with a β counter (Minimax; United Technology Pachard). Each test consisted of 5 up to 10 identically treated wells and was repeated at least twice with freshly prepared chondrocytes.
The incorporation of [^3 H]thymidine by non-induced control cells and by stimulated cells is shown by C and E, respectively. The results shown mean ±S.E. for n parallel cell cultures.

[2] = test system: osteoblast enriched rat embryo calvaria cell cultures; test: Cyclic AMP production in rat embryo calvaria cell cultures; assay type: cell-based; conditions: 100 nM; 15 min; control 29 ± 2.9 pmol/mg of protein
Method: (§1) FIG. 10 is a graphical representation showing the dose dependent stimulation by bPTH (1-84) of osteoblast enriched rat embryo calvaria cell cultures. Experimental details for the determination of cyclic AMP (.quadrature.) (15 min after stimulation) and incorporation of [^3 H]thymidine into DNA ( ) and CK ( ) specific activity (24 h after stimulation) are given below. The results are means ±S.E.M., N≥5. In several cases the S.E.M. was less than the size of the symbol. Control values were: cyclic AMP, 25±5 pmol/mg of protein; DNA, 240±30 c.p.m./μg of DNA; CK, 200±20 nmol/min per mg of protein. Statistical significance of differences between treated and corresponding control groups by Student's T test: *P<0.05; **P<0.01.
(§2) Rat calvaria cultures were treated with fragments of PTH derived from the central portion of the molecule.

[3] = test system: osteoblast enriched rat embryo calvaria cell cultures; test: CK specific activity in rat embryo calvaria cell cultures; assay type: cell-based; conditions: for CK specific activity, effect of fragment (experimental value/control value): 100 nM, 24 h, control 457 ± 46 nmol/min per mg of protein; for increase of CK activity (in words): treated for 24 h
Method: as §1, §2

[4] = test system: osteoblast enriched rat embryo calvaria cell cultures; test: DNA synthesis ([3H]thymidine incorporation) in rat embryo calvaria cell cultures; assay type: cell-based; conditions: 100 nM; 24 h; control 624 ± 73 c.p.m./μg of DNA
Method: as §1

[5] = test system: ROS 17/2.8 osteoblast-like cells; test: Cyclic AMP production in ROS 17/2.8 osteoblast-like cells; assay type: cell-based, rat
Method: When cultures of the widely used model for osteoblasts, the osteoblast-likeclone of rat osteosarcoma, ROS 17/2.8 (Endocrinology (Baltimore), 107 (1980) 1494-1503=12; Majeska et al.), were incubated with full-length PTH and PTH fragments (Table 4), cyclic AMP production was stimulated only by bPTH(1-84) and hPTH(1-34), whereas hPTH(25-39), hPTH(27-48), hPTH(28-48) and hPTH(34-47) were ineffective.

[6] = test system: ROS 17/2.8 osteoblast-like cells; test: CK specific activity in ROS 17/2.8 osteoblast-like cells; assay type: cell-based, rat
[7] = test system: ROS 17/2.8 osteoblast-like cells; test: DNA synthesis in ROS 17/2.8 osteoblast-like cells; assay type: cell-based, rat

## hPTH(29-47): PTH fragment 29-47, human source (QDVHNFVALGAPLAPRDAG; Parathyroid hormone; UniProt P01270 60-78, looked up, fragment)
[1]; 4.8 × 10^-5 mol/l, control 139 ± 6
  [^3 H]thymidine incorporation: 273 ± 30 cpm
[1]; 4.8 × 10^-5 mol/l
  E/C: 1.96
[1]; 4.8 × 10^-6 mol/l, control 139 ± 6
  [^3 H]thymidine incorporation: 225 ± 20 cpm
[1]; 4.8 × 10^-6 mol/l
  E/C: 1.62
[1]; 4.8 × 10^-7 mol/l, control 139 ± 6
  [^3 H]thymidine incorporation: 273 ± 33 cpm
[1]; 4.8 × 10^-7 mol/l
  E/C: 1.96
[1]; 4.8 × 10^-8 mol/l, control 139 ± 6
  [^3 H]thymidine incorporation: 138 ± 15 cpm
[1]; 4.8 × 10^-8 mol/l
  E/C: 0.99
[2]
  Cyclic AMP concentration, effect of fragment (experimental value/control value): 0.57 ± 0.47
[3]
  CK specific activity, effect of fragment (experimental value/control value): 1.67 ± 0.13
  increase of CK activity (in words): stimulatory but to a lesser degree
[4]
  [3H)Thymidine incorporation, effect of fragment (experimental value/control value): 1.96 ± 0.14

## hPTH(31-47): PTH fragment 31-47, human source; comparative example (VHNFVALGAPLAPRDAG; Parathyroid hormone; UniProt P01270 62-78, looked up, fragment) [reference compound]
[1]; 5.3 × 10^-5 mol/l, control 139 ± 6
  [^3 H]thymidine incorporation: 176 ± 8 cpm
[1]; 5.3 × 10^-5 mol/l
  E/C: 1.27
[1]; 5.3 × 10^-6 mol/l, control 139 ± 6
  [^3 H]thymidine incorporation: 178 ± 35 cpm
[1]; 5.3 × 10^-6 mol/l
  E/C: 1.28
[1]; 5.3 × 10^-7 mol/l, control 139 ± 6
  [^3 H]thymidine incorporation: 178 ± 24 cpm
[1]; 5.3 × 10^-7 mol/l
  E/C: 1.28
[1]; 5.3 × 10^-8 mol/l, control 139 ± 6
  [^3 H]thymidine incorporation: 165 ± 20 cpm
[1]; 5.3 × 10^-8 mol/l
  E/C: 1.19
[3]
  increase of CK activity (in words): inactive

## hPTH(29-39): PTH fragment 29-39 as printed; probably a misprint of hPTH(25-39) (QDVHNFVALGA; Parathyroid hormone; UniProt P01270 60-70, looked up, fragment)
[3]
  increase of CK activity (in words): maximally active

## hPTH(30-47): PTH fragment 30-47, human source; comparative example (DVHNFVALGAPLAPRDAG; Parathyroid hormone; UniProt P01270 61-78, looked up, fragment) [reference compound]
[1]; 5.1 × 10^-5 mol/l, control 139 ± 6
  [^3 H]thymidine incorporation: 248 ± 31 cpm
[1]; 5.1 × 10^-5 mol/l
  E/C: 1.78
[1]; 5.1 × 10^-6 mol/l, control 139 ± 6
  [^3 H]thymidine incorporation: 193 ± 20 cpm
[1]; 5.1 × 10^-6 mol/l
  E/C: 1.39
[1]; 5.1 × 10^-7 mol/l, control 139 ± 6
  [^3 H]thymidine incorporation: 222 ± 19 cpm
[1]; 5.1 × 10^-7 mol/l
  E/C: 1.60
[1]; 5.1 × 10^-8 mol/l, control 139 ± 6
  [^3 H]thymidine incorporation: 169 ± 23 cpm
[1]; 5.1 × 10^-8 mol/l
  E/C: 1.22
[2]
  Cyclic AMP concentration, effect of fragment (experimental value/control value): 1.00 ± 0.22
[3]
  CK specific activity, effect of fragment (experimental value/control value): 1.27 ± 0.03
  increase of CK activity (in words): slightly stimulatory
[4]
  [3H)Thymidine incorporation, effect of fragment (experimental value/control value): 1.86 ± 0.18

## hPTH(33-47): PTH fragment 33-47, human source; inactive fragment (NFVALGAPLAPRDAG; Parathyroid hormone; UniProt P01270 64-78, looked up, fragment) [reference compound]
[3]
  increase of CK activity (in words): inactive

## hPTH(27-48): PTH fragment 27-48 as printed; probably a misprint of hPTH(28-47) (KLQDVHNFVALGAPLAPRDAGS; Parathyroid hormone; UniProt P01270 58-79, looked up, fragment)
[5]
  stimulation of cyclic AMP production (in words): ineffective

## hPTH(28-39): PTH fragment 28-39, human source (LQDVHNFVALGA; Parathyroid hormone; UniProt P01270 59-70, looked up, fragment)
[1]; 7.6 × 10^-4 mol/l, control 324 ± 18
  [^3 H]thymidine incorporation: 387 ± 41 cpm
[1]; 7.6 × 10^-4 mol/l
  E/C: 1.19
[1]; 7.6 × 10^-5 mol/l, control 324 ± 18
  [^3 H]thymidine incorporation: 399 ± 47 cpm
[1]; 7.6 × 10^-5 mol/l
  E/C: 1.23
[1]; 7.6 × 10^-6 mol/l, control 324 ± 18
  [^3 H]thymidine incorporation: 324 ± 45 cpm
[1]; 7.6 × 10^-6 mol/l
  E/C: 1.00
[1]; 7.6 × 10^-7 mol/l, control 324 ± 18
  [^3 H]thymidine incorporation: 473 ± 74 cpm
[1]; 7.6 × 10^-7 mol/l
  E/C: 1.46
[1]; 7.6 × 10^-8 mol/l, control 324 ± 18
  [^3 H]thymidine incorporation: 319 ± 39 cpm
[1]; 7.6 × 10^-8 mol/l
  E/C: 0.97

## hPTH(32-47): PTH fragment 32-47 as printed; at this place probably a misprint of hPTH(28-47) (HNFVALGAPLAPRDAG; Parathyroid hormone; UniProt P01270 63-78, looked up, fragment)
[3]
  increase of CK activity (in words): maximally active

## hPTH(24-47): PTH fragment 24-47 as printed; probably a misprint of hPTH(34-47) (LRKKLQDVHNFVALGAPLAPRDAG; Parathyroid hormone; UniProt P01270 55-78, looked up, fragment)
[6]
  stimulation of CK activity (in words): stimulated by all of the cell fragments tested except
[7]
  stimulation of DNA synthesis (in words): stimulated by all of the cell fragments tested except
